Experimental data taken from US6015560A, “Antibody recognizing endothelial cell ligand for leukocyte CR3” (priority 1995, dated 2000).

Legend:
leukocytes in CSF = assay: Rabbit meningitis model: leukocyte migration into CSF; format: in vivo
Experimental: (§1) The rabbit model was performed according to an established protocol. Specific pathogen free, New Zealand white rabbits (2 kg; Hare Marland, Nutley, N.J.) were anesthetized with valium (2.5 mg/kg, subcutaneously, Hoffman-LaRoche, Nutley, N.J.), ketamine (35 mg/kg, intramuscularly, Aveco, Fort Dodge, Iowa) and xylazine (5 mg/kg, intramuscularly, Miles Laboratories, Shawnee, Kans.) and a helmet of dental acrylic was affixed to the calvarium. Twenty four hours later, the rabbits were anesthetized with ethyl carbamate (1.75 g/kg; Aldrich Chemical Co., Milwaukee, Wis.) and pentobarbital (15 mg/kg; Abbott Laboratories, Abbott Park, Ill.) and placed in a stereotaxic frame. A spinal needle was introduced into the cisterna magna and 300 μl of CSF was withdrawn. The animals were challenged intracisternally with 10^8 heat killed, unencapsulated pneumococcus strain R6 introduced in 200 μl of saline (time 0). One hour later, animals were treated with peptides dissolved in 1 ml of saline by intravenous injection into the right marginal ear vein. The concentration of FHA was 0.1 μM and that of the FHA Ia, Factor X II, and scrambled FHA II peptides was 10 μM. For the acetyl-FHA II, acetyl/amide-FHA II, dimer of FHA II and trimer of FHA II peptides, the concentration was 10^-3 μM. The concentration of FHA II is given in the results section. Samples of CSF were withdrawn at hourly intervals after pneumococcal inoculation and leukocyte density was measured using a cell counter (Coulter Electronics Inc., Hialeah, Fla.). CSF samples were centrifuged at 10,000×g for 5 minutes and the supernatant was stored at -70° C. until assayed for protein concentration using the bicinchoninic acid method (BCA Kit, Pierce Chemical Co., Rockford, Ill.) and for lactate concentration (Lactate Detection Kit, Sigma, St. Louis, Mo.). Statistically significant differences between treatments were determined by a one way analysis of variance test.
The anti-inflammatory effects of the administered peptides were assessed in the rabbit model for meningitis by the procedures described in Example 10. The animals received 1 ml of 1 uM peptide intravenously. In a slight departure from the protocol described in Example 10, samples of blood were drawn from the left marginal ear vein 30 minutes after the administration of the peptides to determine peripheral leukocyte concentrations.

blood brain barrier = assay: Rabbit meningitis model: CSF protein and lactate (blood brain barrier permeability); format: in vivo
Experimental: as §1
Loss of barrier function of the cerebral capillary endothelium during inflammation is reflected by an influx of serum proteins into the CSF. […] To examine if the peptides were able to ameliorate these measures of cerebral injury, CSF protein and lactate concentrations were measured hourly in peptide-treated and control animals (Table 10).
Leukocyte migration into the CSF in bacterial meningitis is associated with loss of barrier function of the cerebral capillary endothelium, resulting in influx of serum proteins into the CSF. To determine whether FHA peptides were able to prevent this leukocyte-dependent injury, protein concentrations in the CSF were measured throughout the course of inflammation in peptide-treated and control animals.

C3bi = assay: Inhibition of binding of 12.1F9 to E-C3bi by peptides; set-up: species or system human
Source text: The antibody 12.1F9 maps to the region 1279-2011 of FHA. When the derived amino acid sequence of this region was compared to that of C3, a region of 11 amino acids with similar sequence was found between FHA residues 1408-1418 and C3 residues 1187-1197 (Table 14). […] However, the FHA-20-mer and the homologous C3-derived peptide blocked binding by up to 60%.

[1] = TLC plates containing ciliary extracts; cited from earlier work
[2] = 6 hours, peptides 10 μM, FHA 0.1 μM

filamentous hemagglutinin [native FHA]
anti-inflammatory effect (in words) (leukocytes in CSF; 10^-3 μM i.v.): ineffective | mean leukocyte concentration in CSF (leukocytes in CSF; 7 hours, FHA 0.1 μM (25 μg) i.v.): 2096±450 /μl CSF | leukocyte density vs control (in words) (leukocytes in CSF; 7 hours, 10^-1 μM): statistically significantly different from control | reduction of CSF leukocytosis (leukocytes in CSF; peptides 10 μM, FHA 0.1 μM): > 60% | protein influx into CSF and lactate generation (in words) (blood brain barrier; 10 μM peptides, 0.1 μM FHA): significantly protective for protein influx and lactate generation | Total protein in CSF (blood brain barrier; 6 hours): 1.70 ± 0.33 mg/mL | Lactate in CSF (blood brain barrier; [2]): 25.0 ± 5.3 mg/100 ml | Protein in CSF (blood brain barrier; [2]): 1.3 ± 0.3 mg/ml CSF | Total protein in CSF (blood brain barrier; 7 hours): 1.86 ± 0.76 mg/mL | block of binding of 12.1F9 to C3bi (in words) (C3bi): blocked binding almost completely | Adherence index (C3bi; peptides 50 μg/ml, normalized to a control value of 100): 16 ± 16 | binding to lactosylceramide [1]: binds to lactosylceramide
